Data reported in ChEMBL document CHEMBL2062486, “HIV-1 Integrase Inhibitor-Inspired Antibacterials Targeting Isoprenoid Biosynthesis” (ACS Med Chem Lett, 2012).
≈ marks a conversion by molar mass, not a printed value. Calls of active or inactive are those of the source. The calls are words filed in the database; no cut-off is given here.

Tests used:
[1] = Inhibition of Escherichia coli UPPS-mediated undecaprenyl pyrophosphate synthesis by continuous spectrophotometric assay
[2] = target: T1, 4,4'-diapophytoene synthase (Staphylococcus aureus, UniProt A9JQL9); experiment: Inhibition of Staphylococcus aureus His6-tagged CrtM expressed in Escherichia coli BL21(DE3) using Farnesyl pyrophosphate as substrate incubated for 30 mins prior to substrate addition by continuous spectrophotometric assay
T1 sequence (A9JQL9 whole entry): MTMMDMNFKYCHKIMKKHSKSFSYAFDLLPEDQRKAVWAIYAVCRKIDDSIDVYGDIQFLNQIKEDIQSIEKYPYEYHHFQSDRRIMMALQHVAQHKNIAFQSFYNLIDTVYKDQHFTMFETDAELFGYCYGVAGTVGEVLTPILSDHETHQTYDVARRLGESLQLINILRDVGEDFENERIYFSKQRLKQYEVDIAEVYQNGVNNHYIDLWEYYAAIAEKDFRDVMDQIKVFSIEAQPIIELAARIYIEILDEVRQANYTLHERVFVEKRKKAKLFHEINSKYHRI

Escherichia coli [3] = experiment: Antibacterial activity against Escherichia coli DH5alpha; assay type: functional, organism-based; settings: DH5[alpha]
Escherichia coli [4] = experiment: Antibacterial activity against Escherichia coli K12; assay type: functional, organism-based; settings: K-12
Listeria monocytogenes = experiment: Antibacterial activity against Listeria monocytogenes; assay type: functional
[5] = Antibacterial activity against Streptococcus pyogenes M1; assay type: functional, Streptococcus pyogenes serotype M1
[6] = target: T2, Farnesyl pyrophosphate synthase (Homo sapiens) (UniProt P14324); experiment: Inhibition of FPPS
T2 sequence (whole entry): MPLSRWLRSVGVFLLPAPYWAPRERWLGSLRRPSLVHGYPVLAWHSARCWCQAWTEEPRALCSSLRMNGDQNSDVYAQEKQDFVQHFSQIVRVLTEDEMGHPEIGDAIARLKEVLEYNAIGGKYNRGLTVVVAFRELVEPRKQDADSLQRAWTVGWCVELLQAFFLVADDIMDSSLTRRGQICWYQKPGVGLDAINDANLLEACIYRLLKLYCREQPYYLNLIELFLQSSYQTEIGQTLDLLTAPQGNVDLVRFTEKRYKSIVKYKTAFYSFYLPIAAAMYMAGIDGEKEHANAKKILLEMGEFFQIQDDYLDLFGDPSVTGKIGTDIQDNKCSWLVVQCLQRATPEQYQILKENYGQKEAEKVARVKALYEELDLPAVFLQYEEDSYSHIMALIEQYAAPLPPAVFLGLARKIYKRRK

Enterococcus faecium = experiment: Antibacterial activity against Enterococcus faecium U503; assay type: functional
MCF7 = experiment: Cytotoxicity against human MCF7 cells; assay type: cell-based
Bacillus anthracis = experiment: Antibacterial activity against Bacillus anthracis str. Sterne; assay type: functional
[7] = Inhibition of Staphylococcus aureus UPPS-mediated undecaprenyl pyrophosphate synthesis by continuous spectrophotometric assay
Staphylococcus aureus = experiment: Antibacterial activity against methicillin-resistant Staphylococcus aureus USA300; assay type: functional
[8] = target: T1, 4,4'-diapophytoene synthase; experiment: Inhibition of Staphylococcus aureus isolate WT CrtM-mediated staphyloxanthin synthesis after 72 hrs by spectrophotometry

| SMILES | IC50 [1] [µM] | IC50 [2] [µM] | Activity (Escherichia coli [3]) | Activity (Escherichia coli [4]) | MIC90 (Listeria monocytogenes) [µg/mL] | MIC90 [5] [µg/mL] | inhibition [6] | MIC90 (Enterococcus faecium) [µg/mL] | IC50 (MCF7) [µM] | MIC90 (Bacillus anthracis) [µg/mL] | IC50 [7] [µM] | MIC90 (Staphylococcus aureus) [µg/mL] | Ki [1] [µM] | Ki [2] [µM] | IC50 [8] [µM] |
| --- | --- | --- | --- | --- | --- | --- | --- | --- | --- | --- | --- | --- | --- | --- | --- |
| CCCCCCCCCCOc1cccc(C(=O)/C=C(\O)C(=O)O)c1 | 1.9 | 67 | inactive | inactive | 4 (≈ 11.5 µM) | 1 (≈ 2.87 µM) | inactive | 4 (≈ 11.5 µM) | 30 | 0.5 (≈ 1.43 µM) | 0.73 |  |  |  |  |
| O=C(CP(=O)(O)O)NCCCc1cccc(Oc2ccccc2)c1 |  |  |  |  |  |  | inactive |  |  |  |  |  |  |  |  |
| O=P(O)(O)C(O)(Cc1cccc(-c2cccc3c2oc2ccccc23)c1)P(=O)(O)O | 0.3 |  |  |  |  |  |  |  |  |  |  |  |  |  |  |
| CCCCCCCCOc1ccc(C(=O)/C=C(\O)C(=O)O)cc1 | 0.5 | > 300 | inactive | inactive | 4 (≈ 12.5 µM) | 1 (≈ 3.12 µM) | inactive | 4 (≈ 12.5 µM) | 30 | 0.5 (≈ 1.56 µM) | 2 | 0.25 (≈ 0.78 µM) |  |  |  |
| CCCCCCCCCCOc1cccc(Cn2ccc(O)c(C(=O)O)c2=O)c1 | > 300 | > 300 |  |  |  |  | inactive |  |  |  | > 300 |  |  |  |  |
| O=C(/C=C(\O)C(=O)O)NCCCc1cccc(-c2ccccc2)c1 | 0.24 | 24 |  |  |  |  | inactive |  |  |  | 1.8 |  | 0.12 |  |  |
| O=C(/C=C(\O)C(=O)O)NCCCc1cccc(Oc2ccccc2)c1 | 2.2 | 24 |  |  |  |  | inactive |  |  |  |  |  |  | 0.25 | 4 |
| CCCCCCOc1cccc(CCCNC(=O)/C=C(\O)C(=O)O)c1 | 0.56 | > 300 |  |  |  |  | inactive |  |  |  | 0.75 |  |  |  |  |
| CCCCCCOc1cccc(Cn2ccc(O)c(C(=O)O)c2=O)c1 | 27 | 45.3 |  |  |  |  | inactive |  |  |  |  |  |  | 0.45 | 33 |
